{
  "source": "patent US12195473B2",
  "about": "“KRAS mutant protein inhibitors” (JACOBIO PHARMACEUTICALS CO., LTD, priority 2019, dated 2025)",
  "key": {"[1]": {"test": "Cynomolgus monkey pharmacokinetic study", "assay_type": "in vivo", "details": "for CL / VSS / AUC0-24 h / Cmax / Oral BA (F %): Cynomolgus monkey; for CL / VSS: 1 mg/kg, iv; for AUC0-24 h / Cmax / Oral BA (F %): 3 mg/kg, po", "experimental": "5. Cynomolgus Monkey Pharmacokinetic Study\nThe purpose of this study was to evaluate the pharmacokinetic properties of compounds in Cynomolgus monkey following single dose administration. The day before administration, monkeys were fasted overnight and free access to water. Four monkeys are needed for each compound and the four monkeys were divided into two groups (one male(♂) and one female (♀) in each group), group A and group B. Monkeys in group A were treated with a single 1 mg/kg dose of compound (iv). Monkeys in group B were treated with a single 3 mg/kg dose of compound (po). For monkeys in group A, blood samples were collected at pre-dose, and at the time point of 0.083, 0.25, 0.5, 1, 2, 4, 6, 8 and 24 h. For monkeys in group B, blood samples were collected at pre-dose, and at the time point of 0.25, 0.5, 1, 2, 4, 6, 8 and 24 h post-dose. Blood samples were placed on ice until centrifugation to obtain plasma samples. The plasma samples were stored at −80° C. until analysis. The concentration of compound in plasma samples were determined using a LC-MS/MS method."}, "[2]": {"system": "NCI-H358 cells expressing KRAS G12C", "test": "Phospho-ERK1/2(THR202/TYR204) HTRF assay", "assay_type": "cell-based", "details": "2 hours incubation, read-out: p-ERK IC50", "experimental": "NCI-H358 cells expressing KRAS G12C were cultured in RPMI 1640 medium (Gibco) containing 10% fetal bovine serum (Gibco). The NCI-H358 cells in culture medium were seeded in 96-well plates at a concentration of 40,000 cells/well and then put in a 37° C./5% CO2 cell incubator to incubate overnight. The next day, culture medium was removed and the compound diluted in assay medium (RPMI 1640, 0.1% FBS) was added in each well. After 2 hours incubation in a 37° C./5% CO2 cell incubator, the assay medium in 96-well plates was removed, then 50 μL of 1× blocking reagent-supplemented lysis buffer (Cisbio) was added and the plates were incubated at 25° C. for 45 min with shaking. 10 μL of cell lysates from the 96-well plates were transferred to a 384-well plate (Greiner) containing 2.5 μL/well HTRF® pre-mixed antibodies (Cisbio 64AERPEH). Incubate 4 hours at 25° C. and then read HTRF signals on Tecan Spark multimode microplate reader. The data were analyzed using a 4-parameter logistic model to calculate IC50 values."}, "[3]": {"system": "NCI-H1373 cells", "test": "Efficacy in NCI-H1373 xenograft model", "assay_type": "in vivo, BALB/c nude mice", "experimental": "6. The Efficacy in NCI-H1373 Xenograft Model\nNCI-H1373 cells (5.0E+06 cells) were injected subcutaneously into the right flank of female BALB/c nude mice (6-8 weeks) in a mixture with PBS and Matrigel (Corning) (PBS/Matrigel=1:1 (v/v)). Mice were monitored daily and caliper measurements began when tumors became visible. Tumor volume was calculated by measuring two perpendicular diameters using the formula: (L*W^2)/2 in which L and W refer to the length and width tumor diameter, respectively. When the average tumor volume reached 150-200 mm^3, mice were grouped randomly (n=6/group) and treated with compounds. Tumor volume and mice weight was measured twice a week during treatment (˜ 3 weeks). […] The results are in the following Table 13 and FIG. 8: […]"}, "[4]": {"test": "Safety exploration in MIA PaCa-2 xenograft model", "assay_type": "in vivo", "details": "MIA PaCa-2 xenograft mice, 400 mg/kg, po, QD, 22 days", "experimental": "7. Safety Exploration in MIA PaCa-2 xenograft Model\n. Mice were monitored daily and caliper measurements began when tumors became visible. Tumor volume was calculated by measuring two perpendicular diameters using the following formula: (L*W^2)/2 in which L and W refer to the length and width tumor diameter, respectively. After mice were grouped to study the efficacy, the remaining mice (n=6) were used to explore the safety. The mice were treated with 400 mg/kg compound 1-2 (po, QD) for 22 days, and mice body weight was measured twice a week during treatment. […]"}, "[5]": {"test": "Dog pharmacokinetic study", "assay_type": "in vivo, beagle dog", "details": "for CL / VSS / AUC0-24 h / Cmax / Oral BA (F %): beagle dog; for CL / VSS: 1 mg/kg, iv; for AUC0-24 h / Cmax / Oral BA (F %): 10 mg/kg, po", "experimental": "4. Dog Pharmacokinetic Study\nThe purpose of this study was to evaluate the pharmacokinetic properties of compounds in beagle dog following single dose administration. The day before administration, dogs were fasted overnight and free access to water. Four beagle dogs were needed for each compound and the four dogs were divided into two groups (one male (♂) and one female (♀) in each group). Dogs in group A were treated with a single 1 mg/kg dose of compound (iv). Dogs in group B were treated with a single 10 mg/kg dose of compound (po). For dogs in group A, blood samples were collected at pre-dose, and at the time point of 0.083, 0.25, 0.5, 1, 2, 4, 6, 8 and 24 h. For dogs in group B, blood samples were collected at pre-dose, and at the time point of 0.25, 0.5, 1, 2, 4, 6, 8 and 24 h post-dose. Blood samples were placed on ice until centrifugation to obtain plasma samples. The plasma samples were stored at −80° C. until analysis. The concentration of compound in plasma samples were determined using a LC-MS/MS method."}},
  "data": [
    {"smiles": "C=CC(=O)N1CCN(c2c(C#N)c(=O)n(-c3c(C)ccnc3C(C)C)c3nc(-c4c(N)c(F)c(F)c(F)c4F)c(Cl)cc23)CC1", "note": "(atropisomer, axis not shown; (M)) [Compound 1-2, (M)-4-(4-acryloylpiperazin-1-yl)-7-(2-amino-3,4,5,6-tetrafluorophenyl)-6-chloro-1-(2-isopropyl-4-methylpyridin-3-yl)-2-oxo-1,2-dihydro-1,8-naphthyridine-3-carbonitrile]", "values": [
      {"measurement": "CL", "setting": "[1]; female", "value": 7.19, "unit": "mL/min/kg"},
      {"measurement": "VSS", "setting": "[1]; female", "value": 0.86, "unit": "L/kg"},
      {"measurement": "AUC0-24 h", "setting": "[1]; female", "value": 6854, "unit": "ng·h/mL"},
      {"measurement": "Cmax", "setting": "[1]; female", "value": 2680, "unit": "ng/mL"},
      {"measurement": "Oral BA (F %)", "setting": "[1]; female", "value": 98.9, "unit": "%"},
      {"measurement": "CL", "setting": "[1]; male", "value": 5.25, "unit": "mL/min/kg"},
      {"measurement": "VSS", "setting": "[1]; male", "value": 0.61, "unit": "L/kg"},
      {"measurement": "AUC0-24 h", "setting": "[1]; male", "value": 7938, "unit": "ng·h/mL"},
      {"measurement": "Cmax", "setting": "[1]; male", "value": 2030, "unit": "ng/mL"},
      {"measurement": "Oral BA (F %)", "setting": "[1]; male", "value": 83.5, "unit": "%"},
      {"measurement": "Pharmacokinetic properties (in words)", "setting": "[1]; monkey model", "value": "excellent pharmacokinetic properties"},
      {"measurement": "IC50", "setting": "[2]", "value": 10.2, "unit": "nM"},
      {"measurement": "TGI %", "setting": "[3]; 10 mg/kg, QD, Day 21", "value": 103, "unit": "%"},
      {"measurement": "Tumor volume at the end (Day 21)", "setting": "[3]; 10 mg/kg, QD, start volume 193 mm^3", "value": 144, "unit": "mm^3"},
      {"measurement": "Efficacy in vivo (in words)", "setting": "[3]; Table 13 and FIG. 8", "value": "excellent efficacy in vivo"},
      {"measurement": "Safety (mice body weight, FIG. 9)", "setting": "[4]", "value": "good safety"},
      {"measurement": "Pharmacokinetic properties (in words)", "setting": "[5]; beagle dog model, compared with Amgen 6 and 6.3", "value": "excellent pharmacokinetic properties"},
      {"measurement": "CL", "setting": "[5]; female", "value": 18.1, "unit": "mL/min/kg"},
      {"measurement": "VSS", "setting": "[5]; female", "value": 1.1, "unit": "L/kg"},
      {"measurement": "AUC0-24 h", "setting": "[5]; female", "value": 5953, "unit": "ng·h/mL"},
      {"measurement": "Cmax", "setting": "[5]; female", "value": 2980, "unit": "ng/mL"},
      {"measurement": "Oral BA (F %)", "setting": "[5]; female", "value": 65.1, "unit": "%"},
      {"measurement": "CL", "setting": "[5]; male", "value": 15.9, "unit": "mL/min/kg"},
      {"measurement": "VSS", "setting": "[5]; male", "value": 0.9, "unit": "L/kg"},
      {"measurement": "AUC0-24 h", "setting": "[5]; male", "value": 6724, "unit": "ng·h/mL"},
      {"measurement": "Cmax", "setting": "[5]; male", "value": 3420, "unit": "ng/mL"},
      {"measurement": "Oral BA (F %)", "setting": "[5]; male", "value": 64.3, "unit": "%"}
    ]}
  ]
}
